US20230039836A1, “AROMATIC SULPHONAMIDES DERIVATIVES THAT INHIBITS PDI A3, THEIR SYNTHESIS AND USE” (Uniwersytet Jagiellonski, priority 2020, published 2023)
≈ marks a conversion by molar mass, not a printed value. Read-outs that look alike come from different tables or passages of the source.

Tests used:
[1] = test system: MDA-MB-231; assay: Sulforhodamine B antiproliferative assay, 72 h, normal and hypoxia; format: cell-based, human; conditions: 72-hour exposition
Method: (§1) Anticancer activity of PDI A1-inhibitors has been also tested in vitro in antiproliferative essay in normoxic and hypoxic conditions as well in estrogen-stimulated cancer cells. In the experiment, cells were seeded on 96-well plates (Sarstedt, Germany) in appropriate culture medium at a density of 10^5 cells/mL 24 h before adding the tested compounds. Cells were treated with each compound in four concentrations in the range 0.1-100 ug/mL. […] After 72 h of compound treatment at 37° C., 5 % CO2 humid atmosphere and in wo different oxygen level conditions: 21% - normal and <1% - hypoxia. In some experiments, the MDA-MB-231 and MCF-7 cells were seeded with or without 200 nM estradiol and after 24 h the tested compounds were added. A previously described sulforhodamine B antiproliferative assay was used with minor modifications (Skehan P et al., 1990). Briefly, cells were fixed with 50 µL/well of 50% (w/v) trichloroacetic acid (Avantor Performance Materials, Gliwice, Poland). After 1 h incubation, plates were washed several times with tap water and 50 µL of 0.4% (w/v) solution of sulforhodamine B (Sigma-Aldrich, Germany) in 1% (v/v) acetic acid (Avantor Performance Materials, Gliwice, Poland) was added to each well. After 30 min incubation at room temperature, unbound dye was washed out with 1% (v/v) acetic acid, whereas bound dye was solubilized with 10 mM unbuffered TRIS (Avantor Performance Materials, Gliwice, Poland) solution. The entire procedure was performed using a BioTek EL-406 washing station (BioTek Instruments, USA). After additional 30 min, absorbance was read using a Biotek Hybrid H4 reader (BioTek Instruments, USA) at 540 nm wavelength. MTT assay was used alternatively for HL-60 cell line and in the experiment in which estrogens are added (specified in the table legend). Absorbance was measured using a Biotek Hybrid H4 reader at 570 nm wavelength for MTT assay.
(§2) Compounds at each concentration were tested in triplicate in a single experiment and each experiment was repeated at least three times independently.
(§3) Results of in vitro antiproliferative effects are shown in Table 3 and Table 4 and are presented as mean IC50 ± SD calculated using the Prolab-3 system based on Cheburator 0.4 software.

[2] = test system: MCF-7; assay: as above; format: cell-based, human; conditions: 72-hour exposition
Method: as §1, §2, §3

[3] = test system: HT-29; assay: Sulforhodamine B antiproliferative assay, 72 h; format: cell-based, human; conditions: normal (21% of oxygen), 72-hour exposition
Method: as §1, §2, §3

[4] = target: T1, PDI A1 (Homo sapiens, UniProt P07237); assay: Insulin turbidometric assay, inhibition of PDI A1; format: biochemical; conditions: insulin reduction, turbidity at 650 nm, 60 min incubation at 37° C.; read-out: Inhibition of PDI A1 (EC 50)
T1 construct: purchased Mybiosource; host or cells: E. coli
Method: The inhibitory effects compounds of invention on activity of PDI A1 was assess based on the insulin turbidometric assay. Enzymatic activity of PDIA1 was confirmed by measuring the turbidity increase at 650 nm due to insulin reduction. The assay mixture was prepared by addition 10 ug/ml PDIA1 (E.coli recombinant protein; Mybiosource), 0.1 mM phosphate buffer (pH7.6), 1 mM EDTA, 0.087 mM DTT and with or without tested compound and was incubated for 60 min, at 37° C. Reaction was started by addition insulin and DTT. Final concentration of insulin and DTT in assay mixture was 0.15 mM and 0.174 mM, respectively. Turbidity was detected at 650 nm against reference samples without PDI A1s. The measurements were performed at 650 nm using 120-s recordings.

[5] = test system: Caco-2 (human colon adenocarcinoma); assay: MTT antiproliferative assay, 48 h; format: cell-based; conditions: Homo sapiens, Caco-2, 48-hour exposition, read-out: Cytotoxicity, IC50, µM CaCo-2
Method: (§4) About 2000-4000 cells per well (depending on line nature) were placed in 96-well plates and after 24 h compounds were added to the wells. Untreated cells were used as a control. The plates were incubated for 48 h, 37° C., 5% CO2. The number of surviving cells was determined using 3-(4,5-dimethylthiazol-2-yl)-2,5-diphenyltetrazolinium bromide (MTT). MTT-test: after incubating culture medium was removed and 200 µL fresh medium with 20 µL MTT (2 mg/mL in HBSS) was added in each well of the plate. After incubation (3 hr., 37° C., 5% CO2), the medium with MTT was removed and 200 µL DMSO were added at once to each sample. The samples were tested at 540 nm on Thermo Scientific Multiskan EX microplate photometer. The half-maximal inhibitory concentration (IC50) of each compound was calculated using Graph Pad Prism® 3.0.

[6] = test system: MCF-7 (human breast adenocarcinoma, estrogen-positive); assay: MTT antiproliferative assay, 48 h; format: cell-based; conditions: Homo sapiens, MCF7, 48-hour exposition, read-out: Cytotoxicity, IC50, µM MCF-7
Method: as §4

[7] = test system: MDA-MB-231 (human mammary breast adenocarcinoma); assay: MTT antiproliferative assay, 48 h; format: cell-based; conditions: Homo sapiens, MDA-MB-231, 48-hour exposition, read-out: Cytotoxicity, IC50, µM MDA-MB-231
Method: as §4

[8] = test system: HT-1080 (human fibrosarcoma); assay: MTT antiproliferative assay, 48 h; format: cell-based; conditions: 48-hour exposition, read-out: Cytotoxicity, IC50, µM HT-1080
Method: as §4

[9] = test system: HT-29; assay: MTT antiproliferative assay, 72 h; format: cell-based; conditions: Homo sapiens, 72 hours exposition, read-out: IC50 [µg/ml] HT-29 normal
Method: as §1, §2, §3
(§5) Statistical analysis: Unpaired t test. *p<0.05 as compared to appropriate cells not pretreated with estradiol. MTT assay was used for antiproliferative activity assessment.

[10] = test system: HL-60; assay: MTT antiproliferative assay, 72 h; format: cell-based; conditions: Homo sapiens, 72 hours exposition, read-out: IC50 [µg/ml] HL-60 normal
Method: as §1, §2, §3, §5

[11] = test system: MDA-MB-231; assay: MTT antiproliferative assay, 72 h, with or without estradiol; format: cell-based, human; conditions: for IC50: Homo sapiens, MDA-MB-231, 72 hours exposition, MTT
Method: as §1, §2, §3, §5

[12] = test system: MCF-7; assay: as above; format: cell-based, human; conditions: 72 hours exposition; for IC50: Homo sapiens, MCF7, MTT
Method: as §1, §2, §3, §5

[13] = 200 nM estradiol, read-out: IC50 [µg/ml] MDA-MB-231 + estradiol
[14] = not pretreated with estradiol, read-out: IC50 [µg/ml] MDA-MB-231 normal
[15] = 200 nM estradiol, read-out: IC50 [µg/ml] MCF-7 + estradiol
[16] = not pretreated with estradiol, read-out: IC50 [µg/ml] MCF-7 normal

T1 sequence (P07237 18-508, species assumed): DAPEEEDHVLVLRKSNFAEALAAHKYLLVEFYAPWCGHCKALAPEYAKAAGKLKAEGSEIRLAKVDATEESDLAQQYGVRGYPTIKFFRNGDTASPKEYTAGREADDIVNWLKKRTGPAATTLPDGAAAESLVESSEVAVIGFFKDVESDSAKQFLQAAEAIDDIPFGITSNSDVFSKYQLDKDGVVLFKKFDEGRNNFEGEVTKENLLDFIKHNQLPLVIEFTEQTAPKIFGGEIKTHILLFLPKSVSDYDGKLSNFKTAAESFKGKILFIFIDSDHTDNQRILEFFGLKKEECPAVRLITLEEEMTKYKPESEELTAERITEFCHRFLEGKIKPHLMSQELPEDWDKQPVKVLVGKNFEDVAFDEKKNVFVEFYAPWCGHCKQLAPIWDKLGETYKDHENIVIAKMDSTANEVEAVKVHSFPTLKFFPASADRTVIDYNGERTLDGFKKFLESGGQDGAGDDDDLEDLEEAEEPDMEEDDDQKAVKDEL

| SMILES | melting point | EC50 [4] | IC50 [11, 13] | IC50 [12, 15] | IC50 [5] | IC50 [6] | IC50 [7] | IC50 [8] | IC50 [9] | IC50 [10] | IC50 [11, 14] | Selectivity index (SI): IC50 of MCF-10A/ IC50 of MCF-7 [12] | IC50 [12, 16] | also measured |
| --- | --- | --- | --- | --- | --- | --- | --- | --- | --- | --- | --- | --- | --- | --- |
| N.N.[Cl][Pt][Cl] [Cisplatin, reference compound] | – | – | – | – | – | – | – | – | – | – | – | – | – | IC50 [µg/ml] MDA-MB-231 hypoxia ([1]; hypoxia (<1% of oxygen)): 3.1 ± 0.9 µg/mL; IC50 [µg/ml] MDA-MB-231 normal ([1]; normal (21% of oxygen)): 3.2 ± 0.5 µg/mL; IC50 [µg/ml] MCF-7 hypoxia ([2]; hypoxia (<1% of oxygen)): 1.3 ± 0.5 µg/mL; IC50 [µg/ml] MCF-7 normal ([2]; normal (21% of oxygen)): 1.8 ± 0.3 µg/mL; IC50 [µg/ml] HT-29 normal [3]: 2.82 ± 0.6 µg/mL |
| COC(=O)C1CN1S(=O)(=O)c1ccc([N+](=O)[O-])cc1 (centres unmarked) [Compound C-3212, Methyl 1-(4-nitrophenyl)sulfonylaziridine-2-carboxylate] | 106 to 108 °C | 34 µM | – | – | – | – | – | – | – | – | – | – | – | – |
| CCCCCCc1ccc(S(=O)(=O)N2CC2C(=O)OC)cc1 (centres unmarked) [Compound C-3287, Methyl 1-(4-hexylphenyl)sulfonylaziridine-2-carboxylate] | – | 0.05 µM | 23.8 ± 2.3 µg/mL | 29.3 ± 4.1 µg/mL | – | 123 ± 17 µM | – | – | 31.5 ± 4.9 µg/mL (≈ 96.8 µM) | 0.5 ± 0.3 µg/mL (≈ 1.54 µM) | 6.4 ± 0.8 µg/mL (≈ 19.7 µM) | 1.10 | 31.3 ± 0.6 µg/mL (≈ 96.2 µM) | Change of antiproliferative activity towards MDA-MB-231 during simultaneous incubation with estradiol ([11]; with estradiol versus without): slight decrease of antiproliferative activity |
| COC(=O)C1CN1S(=O)(=O)c1ccc2[nH]c(=O)ccc2c1 (centres unmarked) [Compound C-3350, Methyl 1-[(2-oxo-1H-quinolin-6-yl)sulfonyl]aziridine-2-carboxylate] | 139 to 141 °C | 5.5 µM | – | – | 49 ± 5 µM | 80 ± 8 µM | 136 ± 6 µM | 16 ± 5 µM | – | – | – | – | – | – |
| COC(=O)C1CN1S(=O)(=O)c1ccc2oc(=O)ccc2c1 (centres unmarked) [Compound C-3355, Methyl 1-(2-oxochromen-6-yl)sulfonylaziridine-2-carboxylate] | 42 to 44 °C | 7.7 µM | – | – | 39 ± 1 µM | 276 ± 9 µM | 247 ± 14 µM | 20 ± 1 µM | – | – | – | – | – | – |

Continued, in another order:

| melting point | EC50 [4] | IC50 [11, 13] | IC50 [12, 15] | SMILES | IC50 [5] | IC50 [6] | IC50 [7] | IC50 [8] | IC50 [9] | IC50 [10] | IC50 [11, 14] | Selectivity index (SI): IC50 of MCF-10A/ IC50 of MCF-7 [12] | IC50 [12, 16] | also measured |
| --- | --- | --- | --- | --- | --- | --- | --- | --- | --- | --- | --- | --- | --- | --- |
| 139 to 141 °C | > 200 µM | – | – | NC(=O)C1CN1S(=O)(=O)c1ccc(N)cc1 (centres unmarked) [Compound C-3218, 1-(4-Aminophenyl)sulfonylaziridine-2-carboxamide] | 200 ± 1 µM | 137 ± 14 µM | 64 ± 5 µM | 200 ± 3 µM | – | – | – | – | – | – |
| – | 5 µM | 25.7 ± 1.9 µg/mL | 5.8 ± 1.3 µg/mL | COC(=O)C1CN1S(=O)(=O)c1ccc(F)cc1F (centres unmarked) [Compound C-3353, Methyl 1-(2,4-difluorophenyl)sulfonylaziridine-2-carboxylate] | – | – | – | – | 35.9 ± 1.3 µg/mL (≈ 129 µM) | 2 ± 0.1 µg/mL (≈ 7.21 µM) | 24.2 ± 2.6 µg/mL (≈ 87.3 µM) | 3.36 | 6.2 ± 1.8 µg/mL (≈ 22.4 µM) | – |
| – | – | 26.3 ± 2.5 µg/mL | 26.3 ± 4.3 µg/mL | CCCCCCc1ccc(S(=O)(=O)N2CC2C(=O)NC)cc1 (centres unmarked) [Compound C-3380, 1-(4-Hexylphenyl)sulfonyl-N-methyl-aziridine-2-carboxamide] | – | – | – | – | 34.6 ± 2.2 µg/mL (≈ 107 µM) | 5.3 ± 2.8 µg/mL (≈ 16.3 µM) | 26.1 ± 1 µg/mL (≈ 80.4 µM) | 0.75 | 25.5 ± 2.3 µg/mL (≈ 78.6 µM) | – |
